Assay results published in publication PMC2966118 (The Journal of Biological Chemistry, 2010).

Target: human recombinant TPC2 (hTPC2, HA-HsTPC2) (Homo sapiens, UniProt Q8NHX9)
Experiment: single-channel recording in planar lipid bilayer, open probability
Assay type: biochemical

Sequence of human recombinant TPC2 (hTPC2, HA-HsTPC2) (Q8NHX9 whole entry): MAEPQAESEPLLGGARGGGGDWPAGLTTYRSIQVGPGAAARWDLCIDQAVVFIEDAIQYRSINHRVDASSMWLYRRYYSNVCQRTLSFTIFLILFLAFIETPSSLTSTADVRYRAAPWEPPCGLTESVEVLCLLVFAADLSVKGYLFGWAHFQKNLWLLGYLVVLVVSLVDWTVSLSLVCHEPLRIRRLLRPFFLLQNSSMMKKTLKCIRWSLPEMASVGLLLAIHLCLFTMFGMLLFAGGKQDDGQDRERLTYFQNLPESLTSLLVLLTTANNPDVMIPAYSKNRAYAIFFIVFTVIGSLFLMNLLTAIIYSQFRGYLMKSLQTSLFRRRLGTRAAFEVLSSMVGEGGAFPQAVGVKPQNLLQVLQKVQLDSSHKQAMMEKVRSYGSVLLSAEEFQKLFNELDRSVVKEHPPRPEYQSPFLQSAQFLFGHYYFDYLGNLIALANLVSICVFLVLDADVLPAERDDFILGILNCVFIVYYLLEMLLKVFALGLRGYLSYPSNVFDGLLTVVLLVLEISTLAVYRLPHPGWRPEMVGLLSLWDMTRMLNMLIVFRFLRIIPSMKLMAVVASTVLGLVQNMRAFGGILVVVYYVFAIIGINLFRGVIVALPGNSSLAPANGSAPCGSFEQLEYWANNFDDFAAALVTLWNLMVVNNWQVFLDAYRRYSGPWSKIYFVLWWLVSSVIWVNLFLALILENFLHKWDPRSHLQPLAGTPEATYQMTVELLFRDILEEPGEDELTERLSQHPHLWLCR

An EC50 of 500 nM was found for `Nc1ncnc2c1ncn2[C@@H]1O[C@H](COP(=O)(O)OP(=O)(O)OC[C@H]2O[C@@H]([n+]3cccc(C(=O)O)c3)[C@H](O)[C@@H]2O)[C@@H](O)[C@H]1OP(=O)(O)O` [NAADP] in this work.
